Test results taken from patent US9045493B2, “Furo[3,2-b]- and thieno[3,2-b]pyridin derivatives” (Merck Patent GmbH, priority 2012, dated 2015).
pIC50: −log10 of the molar value.

Assays:
[1] = target: T1, TANK binding kinase (TBK1) (Homo sapiens, UniProt Q9UHD2); assay: TBK1 enzyme assay (384-well Flashplate kinase assay); type: biochemical; settings: 10 μM ATP, 120 Min at 30° C.
T1 sequence (Q9UHD2 1-729): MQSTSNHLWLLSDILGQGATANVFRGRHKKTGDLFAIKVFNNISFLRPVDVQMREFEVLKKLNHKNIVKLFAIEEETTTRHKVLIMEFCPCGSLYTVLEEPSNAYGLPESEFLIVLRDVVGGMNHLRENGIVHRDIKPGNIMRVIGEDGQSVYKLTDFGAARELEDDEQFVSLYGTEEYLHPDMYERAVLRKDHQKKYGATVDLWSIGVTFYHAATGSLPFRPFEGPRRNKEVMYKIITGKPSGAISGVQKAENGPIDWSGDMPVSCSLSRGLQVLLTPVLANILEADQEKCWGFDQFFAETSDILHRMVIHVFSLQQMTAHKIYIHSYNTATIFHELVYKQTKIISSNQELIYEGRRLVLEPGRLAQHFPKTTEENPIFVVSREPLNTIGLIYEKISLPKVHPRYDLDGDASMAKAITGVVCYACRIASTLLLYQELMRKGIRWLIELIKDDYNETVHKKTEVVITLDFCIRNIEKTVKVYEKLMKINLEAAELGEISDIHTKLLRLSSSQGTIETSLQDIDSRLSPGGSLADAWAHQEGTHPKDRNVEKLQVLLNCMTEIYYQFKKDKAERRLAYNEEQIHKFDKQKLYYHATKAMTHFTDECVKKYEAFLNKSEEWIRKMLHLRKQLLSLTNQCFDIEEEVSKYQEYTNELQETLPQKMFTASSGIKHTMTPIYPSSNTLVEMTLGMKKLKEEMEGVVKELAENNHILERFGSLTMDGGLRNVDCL
Experimental: The kinase assay is performed as 384-well Flashplate assay (for e.g. Topcount measurement.
0.6 nM TANK binding kinase (TBK1), 800 nM biotinylated MELK-derived peptide (Biotin-Ah-Ah-[…]) and 10 μM ATP (spiked with 0.25 μCi ^33P-ATP/well) are incubated in a total volume of 50 μl (10 mM MOPS, 10 mM Mg-acetat, 0.1 mM EGTA, 1 mM DTT, 0.02% Brij35, 0.1% BSA, pH 7.5) with or without test compound for 120 Min at 30° C. The reaction is stopped with 25 μl 200 mM EDTA. After 30 Min at room temperature the liquid is removed and each well washed thrice with 100 μl 0.9% sodium chloride solution. Nonspecific reaction is determined in presence of 100 nM Staurosporine. Radioactivity is measured in a Topcount (PerkinElmer). Results (e.g. IC50-values) are calculated with program tools provided by the IT-department (e.g. AssayExplorer, Symyx).

IKKε = target: T2, IKKε (Homo sapiens, UniProt Q14164); assay: IKKε kinase assay (384-well Flashplate); type: biochemical; settings: 10 μM ATP, 2 hours at 30° C.; read-out: IKKε enzyme assay IC50
T2 sequence (Q14164 1-716): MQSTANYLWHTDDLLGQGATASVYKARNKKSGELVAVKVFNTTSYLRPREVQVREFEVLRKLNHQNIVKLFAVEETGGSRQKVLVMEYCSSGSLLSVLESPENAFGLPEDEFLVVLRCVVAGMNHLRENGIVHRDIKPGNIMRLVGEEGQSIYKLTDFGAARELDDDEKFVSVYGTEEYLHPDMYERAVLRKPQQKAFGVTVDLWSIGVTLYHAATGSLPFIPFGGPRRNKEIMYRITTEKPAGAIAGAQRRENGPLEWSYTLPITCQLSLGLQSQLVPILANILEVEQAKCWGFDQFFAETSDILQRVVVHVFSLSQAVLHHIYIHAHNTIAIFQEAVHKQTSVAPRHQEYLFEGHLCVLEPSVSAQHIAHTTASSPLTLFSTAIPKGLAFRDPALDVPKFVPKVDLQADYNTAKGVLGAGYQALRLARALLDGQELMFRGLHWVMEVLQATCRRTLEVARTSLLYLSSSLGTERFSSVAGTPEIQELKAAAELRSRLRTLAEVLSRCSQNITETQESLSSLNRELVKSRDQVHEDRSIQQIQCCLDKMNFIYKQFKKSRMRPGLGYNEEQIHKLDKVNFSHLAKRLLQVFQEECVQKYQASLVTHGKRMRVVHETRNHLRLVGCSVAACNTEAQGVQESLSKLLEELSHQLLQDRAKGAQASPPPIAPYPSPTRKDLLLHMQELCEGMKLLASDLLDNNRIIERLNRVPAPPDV
Experimental: The kinase assay is performed either as 384-well Flashplate assay (for e.g. Topcount measurement).
1 nM IKKε, 800 nM biotinylated IκBα(19-42) peptide (Biotin-C6-C6-[…]) and 10 μM ATP (spiked with 0.3 μCi ^33P-ATP/well) are incubated in a total volume of 50 μl (10 mM MOPS, 10 mM Mg-acetat, 0.1 mM EGTA, 1 mM Dithiothreitol, 0.02% Brij35, 0.1% BSA, 0.1% BioStab, pH 7.5) with or without test compound for 2 hours at 30° C. The reaction is stopped with 25 μl 200 mM EDTA. After 30 Min at room temperature the liquid is removed and each well washed thrice with 100 μl 0.9% sodium chloride solution. […] Radioactivity is measured with Topcount (PerkinElmer). Results (e.g. IC50-values) are calculated with program tools provided by the IT-department (e.g. AssayExplorer, Symyx).

| SMILES | pIC50 [1] | pIC50 (IKKε) |
| --- | --- | --- |
| N#Cc1cc(-c2ccnc3cc(-c4cnn(C5CCNCC5)c4)oc23)ccc1OC1CCOCC1 [Compound A36, 4-(4-{7-[3-Cyano-4-(tetrahydro-pyran-4-yloxy)-phenyl]-furo[3,2-b]pyridin-2-yl}-pyrazol-1-yl)-piperidin] | > 6.52 | > 6.52 |
| CN1CCN(C(=O)c2ccc(-c3cc4nccc(-c5ccc(OCC6CCC6)c(C#N)c5)c4o3)cc2)CC1 [Compound A37] | > 6.52 | > 6.52 |
| N#Cc1cc(-c2ccnc3cc(-c4ccc(C(=O)N5CCNCC5)cc4)oc23)ccc1OCC1CCC1 [Compound A38] | > 6.52 | > 6.52 |
| CN1CCN(C(=O)c2ccc(-c3cc4nccc(-c5ccc(OCC6CC6)c(C#N)c5)c4o3)cc2)CC1 [Compound A39] | > 6.52 | > 6.52 |
| CN(CCO)C(=O)c1ccc(-c2cc3nccc(-c4ccc(OCC5CC5)c(C#N)c4)c3o2)cc1 [Compound A41] | > 6.52 | > 6.52 |
| CN1CCN(C(=O)c2ccc(-c3cc4nccc(-c5ccc(OC6CCOC6)c(C#N)c5)c4o3)cc2)CC1 (stereo not shown) [Compound A42] | > 6.52 | > 6.52 |
| N#Cc1cc(-c2ccnc3cc(-c4ccc(C(=O)N5CCNCC5)cc4)oc23)ccc1OC1CCOC1 (stereo not shown) [Compound A43] | > 6.52 | > 6.52 |
| CN(CCO)C(=O)c1ccc(-c2cc3nccc(-c4ccc(OC5CCOCC5)c(C#N)c4)c3s2)cc1 [Compound A44] | > 6.52 | > 6.52 |
| CN1CCN(C(=O)c2ccc(-c3cc4nccc(-c5ccc(OC6CCOCC6)c(C#N)c5)c4s3)cc2)CC1 [Compound A45] | > 6.52 | > 6.52 |
| Cn1cc(-c2cc3nccc(-c4ccc(OC5CCOCC5)c(C#N)c4)c3o2)cn1 [Compound A46] | > 6.52 | > 6.52 |
| Cc1ccc(-c2cc3nccc(-c4ccc(OC5CCOCC5)c(C#N)c4)c3o2)o1 [Compound A49] | > 6.52 | > 6.52 |
| CCN(CCN(C)C)C(=O)c1ccc(-c2cc3nccc(-c4ccc(OC5CCOCC5)c(C#N)c4)c3s2)cc1OC [Compound A51] | > 6.52 | > 6.52 |
| COc1cc(-c2cc3nccc(-c4ccc(OC5CCOCC5)c(C#N)c4)c3s2)ccc1C(=O)N1CCNCC1 [Compound A52] | > 6.52 | > 6.52 |
| N#Cc1cc(-c2ccnc3cc(-c4cnn(CCCO)c4)oc23)ccc1OC1CCOCC1 [Compound A54] | > 6.52 | > 6.52 |
| N#Cc1cc(-c2ccnc3cc(-c4cnc5ccccc5c4)oc23)ccc1OC1CCOCC1 [Compound A57] | 4.30 to 5.52 | 5.52 to 6.52 |
| N#Cc1cc(-c2ccnc3cc(-c4cccc5[nH]ccc45)oc23)ccc1OC1CCOCC1 [Compound A58] | > 6.52 | > 6.52 |
| CC(CO)(CCl)COc1ccc(-c2ccnc3cc(-c4ccc(C(=O)N5CCNCC5)cc4)oc23)cc1C#N (stereo not shown) [Compound A59] | > 6.52 | > 6.52 |
| CC(CO)(CO)COc1ccc(-c2ccnc3cc(-c4ccc(C(=O)N5CCNCC5)cc4)oc23)cc1C#N [Compound A60] | 5.52 to 6.52 | > 6.52 |
| CN1CCN(C(=O)c2ccc(-c3cc4nccc(-c5ccc(OCC6(C)COC6)c(C#N)c5)c4o3)cc2)CC1 [Compound A61] | > 6.52 | > 6.52 |
| CN(CCO)C(=O)c1ccc(-c2cc3nccc(-c4ccc(OCC5(C)COC5)c(C#N)c4)c3o2)cc1 [Compound A62] | > 6.52 | > 6.52 |
| CCOc1ncccc1-c1cc2nccc(-c3ccc(OC4CCOCC4)c(C#N)c3)c2o1 [Compound A64] | > 6.52 | > 6.52 |
| N#Cc1cc(-c2ccnc3cc(-c4cncc(C(=O)N5CCOCC5)c4)oc23)ccc1OC1CCOCC1 [Compound A65] | > 6.52 | > 6.52 |
| COc1cncc(-c2cc3nccc(-c4ccc(OC5CCOCC5)c(C#N)c4)c3o2)c1 [Compound A66] | 5.52 to 6.52 | > 6.52 |
| N#Cc1cc(-c2ccnc3cc(-c4cnn(C5CCN(CCO)CC5)c4)oc23)ccc1OC1CCOCC1 [Compound A67] | > 6.52 | > 6.52 |
| N#Cc1cc(-c2ccnc3cc(-c4cnn(C5CCN(CCCO)CC5)c4)oc23)ccc1OC1CCOCC1 [Compound A69] | > 6.52 | > 6.52 |
| N#Cc1cc(-c2ccnc3cc(-c4ccc5cn[nH]c5c4)oc23)ccc1OC1CCOCC1 [Compound A71] | 5.52 to 6.52 | > 6.52 |

Other lines, results leading:

| pIC50 [1] | pIC50 (IKKε) | SMILES |
| --- | --- | --- |
| > 6.52 | > 6.52 | COc1cc(-c2cc3nccc(-c4ccc(OC5CCOCC5)c(C#N)c4)c3o2)ccc1C(=O)N1CCNCC1 [Compound A35, 5-{2-[3-methoxy-4-(piperazin-1-carbonyl)-phenyl]-furo[3,2-b]pyridin-7-yl}-2-(tetrahydro-pyran-4-yloxy)-benzonitrile] |
| > 6.52 | > 6.52 | N#Cc1cc(-c2ccnc3cc(-c4ccc(C(=O)N5CCNCC5)cc4)oc23)ccc1OCC1CC1 [Compound A40] |
| > 6.52 | > 6.52 | N#Cc1cc(-c2ccnc3cc(-c4ccc(CN5CCOCC5)s4)oc23)ccc1OC1CCOCC1 [Compound A47] |
| > 6.52 | > 6.52 | N#Cc1cc(-c2ccnc3cc(-c4cnn(CCN5CCOCC5)c4)oc23)ccc1OC1CCOCC1 [Compound A48] |
| > 6.52 | > 6.52 | COc1cc(-c2cc3nccc(-c4ccc(OCC5CC5)c(C#N)c4)c3o2)ccc1C(=O)N1CCNCC1 [Compound A50] |
| > 6.52 | > 6.52 | N#Cc1cc(-c2ccnc3cc(-c4ccc(C(=O)N5CCNCC5)cc4)sc23)ccc1OC1CCOCC1 [Compound A53] |
| 5.52 to 6.52 | > 6.52 | Cc1occc1-c1cc2nccc(-c3ccc(OC4CCOCC4)c(C#N)c3)c2o1 [Compound A55] |
| > 6.52 | > 6.52 | N#Cc1cc(-c2ccnc3cc(-c4ccc(N5CCOCC5)nc4)oc23)ccc1OC1CCOCC1 [Compound A56] |
| > 6.52 | > 6.52 | CN(CCO)C(=O)c1ccc(-c2cc3nccc(-c4ccc(OC5CCOC5)c(C#N)c4)c3o2)cc1 (stereo not shown) [Compound A63] |
| > 6.52 | > 6.52 | COc1cc(-c2cc3nccc(-c4ccc(OC5CCOC5)c(C#N)c4)c3o2)ccc1C(=O)N1CCNCC1 (stereo not shown) [Compound A68] |
| 5.52 to 6.52 | 5.52 to 6.52 | CS(=O)(=O)c1cncc(-c2cc3nccc(-c4ccc(OC5CCOCC5)c(C#N)c4)c3o2)c1 [Compound A70] |
| > 6.52 | > 6.52 | N#Cc1cc(-c2ccnc3cc(-c4ccc(C(=O)N5CCNCC5)cc4)oc23)ccc1N1CCCC1 [Compound A72] |
